Measured values reported in PubChem BioAssay (NCI).
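Following 48 hours of exposure in 96-well plates, responses at five concentrations were used to interpolate endpoints linearly. GI50 marks 50% less growth. TGI marks complete inhibition of growth.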

Legend:
Experiment in all cases: NCI tumour cell line growth inhibition, 48 h
NCI-H23 lung = tested on: NCI-H23 lung
NCI-H460 lung = tested on: NCI-H460 lung
NCI-H522 lung = tested on: NCI-H522 lung
NCI/ADR-RES ovarian = tested on: NCI/ADR-RES ovarian
OVCAR-3 ovarian = tested on: OVCAR-3 ovarian
OVCAR-4 ovarian = tested on: OVCAR-4 ovarian
OVCAR-5 ovarian = tested on: OVCAR-5 ovarian
OVCAR-8 ovarian = tested on: OVCAR-8 ovarian
PC-3 prostate = tested on: PC-3 prostate
RPMI-8226 leukemia = tested on: RPMI-8226 leukemia
RXF 393 renal = tested on: RXF 393 renal
SF-268 CNS = tested on: SF-268 CNS
SF-295 CNS = tested on: SF-295 CNS
SF-539 CNS = tested on: SF-539 CNS
SK-MEL-2 melanoma = tested on: SK-MEL-2 melanoma
SK-MEL-28 melanoma = tested on: SK-MEL-28 melanoma
SK-MEL-5 melanoma = tested on: SK-MEL-5 melanoma
SK-OV-3 ovarian = tested on: SK-OV-3 ovarian
SN12C renal = tested on: SN12C renal
SNB-19 CNS = tested on: SNB-19 CNS
SNB-75 CNS = tested on: SNB-75 CNS
SW-620 colon = tested on: SW-620 colon
T-47D breast = tested on: T-47D breast
TK-10 renal = tested on: TK-10 renal
U251 CNS = tested on: U251 CNS
UACC-257 melanoma = tested on: UACC-257 melanoma
UACC-62 melanoma = tested on: UACC-62 melanoma
UO-31 renal = tested on: UO-31 renal

CN=c1ccc2nc3ccc(N)cc3sc-2c1
TGI (NCI-H23 lung): 12.9 µM
GI50 (NCI-H460 lung): 3.86 µM
TGI (NCI-H460 lung): > 100 µM
GI50 (NCI-H522 lung): 1.33 µM
TGI (NCI-H522 lung): 7.97 µM
GI50 (NCI/ADR-RES ovarian): 1.6 µM
TGI (NCI/ADR-RES ovarian): 8.44 µM
GI50 (OVCAR-3 ovarian): 1.02 µM
TGI (OVCAR-3 ovarian): 13.8 µM
GI50 (OVCAR-4 ovarian): 0.689 µM
TGI (OVCAR-4 ovarian): 7.07 µM
GI50 (OVCAR-5 ovarian): 9.54 µM
TGI (OVCAR-5 ovarian): 23.7 µM
GI50 (OVCAR-8 ovarian): 1.45 µM
TGI (OVCAR-8 ovarian): 10.3 µM
GI50 (PC-3 prostate): 0.276 µM
TGI (PC-3 prostate): 8.85 µM
GI50 (RPMI-8226 leukemia): 0.32 µM
TGI (RPMI-8226 leukemia): 18 µM
GI50 (RXF 393 renal): 8.29 µM
TGI (RXF 393 renal): 23.9 µM
GI50 (SF-268 CNS): 2.84 µM
TGI (SF-268 CNS): 17.1 µM
GI50 (SF-295 CNS): 0.962 µM
TGI (SF-295 CNS): 3.79 µM
GI50 (SF-539 CNS): 1.75 µM
TGI (SF-539 CNS): 5.86 µM
GI50 (SK-MEL-2 melanoma): 11 µM
TGI (SK-MEL-2 melanoma): 30.9 µM
GI50 (SK-MEL-28 melanoma): 7.36 µM
TGI (SK-MEL-28 melanoma): 24.1 µM
GI50 (SK-MEL-5 melanoma): 0.448 µM
TGI (SK-MEL-5 melanoma): 1.88 µM
GI50 (SK-OV-3 ovarian): 5.03 µM
TGI (SK-OV-3 ovarian): 24.7 µM
GI50 (SN12C renal): 2.47 µM
TGI (SN12C renal): 12.5 µM
GI50 (SNB-19 CNS): 3.25 µM
TGI (SNB-19 CNS): > 100 µM
GI50 (SNB-75 CNS): 10.8 µM
TGI (SNB-75 CNS): 28.7 µM
GI50 (SW-620 colon): 2.89 µM
TGI (SW-620 colon): 20.2 µM
GI50 (T-47D breast): 1.69 µM
TGI (T-47D breast): 13.2 µM
GI50 (TK-10 renal): 6.96 µM
TGI (TK-10 renal): 32.6 µM
GI50 (U251 CNS): 1.36 µM
TGI (U251 CNS): 10.2 µM
GI50 (UACC-257 melanoma): 1.18 µM
TGI (UACC-257 melanoma): 5.04 µM
GI50 (UACC-62 melanoma): 2.61 µM
TGI (UACC-62 melanoma): 14 µM
GI50 (UO-31 renal): 4.56 µM
TGI (UO-31 renal): 21.2 µM
